Assay results published in patent US20260240878A1, “PTP1B/TC-PTP DUAL INHIBITORS AND PROTEIN DEGRADERS” (Purdue Research Foundation, priority 2023, published 2026).
*1 amine or outer side, *2 acyl side, *3 side chain or, on linkers, in order; H or OH if unused. Where a SMILES comes first, the peptide text is derived from it. [ ]: non-standard residue; d: D form. The star is where a group is joined. NHCH2(1,3-C6H4)CH2CO = O=C(Cc1cccc(CN[*:1])c1)[*:2]; F2Pmp = N[C@@H](Cc1ccc(C(F)(F)P(=O)(O)O)cc1)C(=O)O; Phenylacetyl(4-OH,3-OMe) = COc1cc(CC(=O)*)ccc1O; Benzoyl(3-Br,4-Me) = Cc1ccc(C(=O)*)cc1Br; X1 = Cc1ncsc1-c1ccc([C@H](C)N*)cc1; cisHyp = O=C(O)[C@@H]1C[C@H](O)CN1; Tle = CC(C)(C)[C@H](N)C(=O)O; Cbz = O=C(OCc1ccccc1)*

Columns and labels:
[1] = test system: compound 47-mediated PTP1B and TC-PTP degradation; test: Degradation mechanism verification in HEK293 cells (pretreatment with pathway blockers); type: cell-based; conditions: pretreatment then 100 nM compound 47 for 4 hours
Experimental: Cells were pre-treated with indicated concentration of MLN4924 (prevents ubiquitination), MG132 (blocks proteasome activity), lenalidomide (prevents CRBN binding) or (S,R,S)-AHPC-Me (prevents VHL binding) followed by 4 hours of treatment with compound 47 at 100 nM showing compound 47-mediated PTP1B/TC-PTP degradation depends on the ubiquitination-proteasome pathway. No degradation was observed when cells were treated with 100 nM cis-compound 47 (inactivated degrader) for 4 hours.
PROTAC-mediated protein degradation requires the obligatory formation of afunctional ternary complex of target protein-PROTAC-E3 ligase to enable target protein ubiquitination by the E3 ligase, followed by proteasomal degradation. The VHL E3 ligase dependency for compound 47 induced PTP1B and TC-PTP degradation was confirmed by preparing cis-isomer of compound 47 (cis-47) in which the VHL E3 ligand was replaced with (S,S,S)-AHPC-Me, an epimer of (S,R,S)-AHPC-Me with diminished affinity for VHL. […] Moreover, the addition of the VHL ligand (S,R,S)-AHPC-Me reduced the compound 47-mediated degradation of the two proteins (FIG. 6A). In contrast, pretreatment of the cell with lenalidomide, a ligand for cereblon (another E3 ligase commonly employed for PROTAC development), had no effect on compound 47-mediated PTP1B and TC-PTP degradation (FIG. 6A). […] The compound 47 mediated PTP1B and TC-PTP degradation and proteasome dependency were also verified by immunofluorescent imaging (FIGS. 6B and 6C).

pSTAT1 = test: STAT1 phosphorylation in IFN-γ stimulated HEK293 cells (western blot); type: cell-based; conditions: Homo sapiens; HEK293 cells, 16 hours, 20 ng/ml IFN-γ; read-out: EC50 of pSTAT1 activation
Experimental: Wild-type HEK293 cells were treated with compound 47 or ABBV-CLS-484 for 16 hours, and stimulated with 20 ng/ml IFN-γ to induce JAK-STAT signaling pathway activation.
Abbvie and Calico developed a potent PTP1B/TC-PTP inhibitor ABBV-CLS-484 (disclosed in International PCT application WO2019246513), and it is currently being evaluated as a treatment for locally advanced or metastatic tumors (NCT04777994).

PTP1B [2] = biological target: T1, PTP1B (Homo sapiens, UniProt P18031); test: PTP activity assay with pNPP substrate (IC50, Ki, mode of inhibition); type: biochemical; conditions: pNPP 2 mM, pH 7.0, 25° C.; read-out: IC50, nM PTP1B
T1 sequence (P18031 1-435): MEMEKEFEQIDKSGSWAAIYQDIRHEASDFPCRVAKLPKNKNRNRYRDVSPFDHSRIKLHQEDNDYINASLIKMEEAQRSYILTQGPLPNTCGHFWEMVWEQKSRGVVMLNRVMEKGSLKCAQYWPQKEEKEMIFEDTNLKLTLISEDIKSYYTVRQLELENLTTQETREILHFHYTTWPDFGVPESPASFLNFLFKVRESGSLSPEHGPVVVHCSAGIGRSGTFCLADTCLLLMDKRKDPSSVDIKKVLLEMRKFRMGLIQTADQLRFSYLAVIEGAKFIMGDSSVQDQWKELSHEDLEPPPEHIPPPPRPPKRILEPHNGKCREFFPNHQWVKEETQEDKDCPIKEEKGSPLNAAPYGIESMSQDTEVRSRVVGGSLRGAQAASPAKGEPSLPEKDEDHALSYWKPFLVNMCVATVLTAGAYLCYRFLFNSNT
How it was run: (§1)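 Hydrolysis of pNPP measured spectrophotometrically in pH 7.0 DMG buffer (EDTA, NaCl, DTT, BSA) at 25 °C, 0.4 nM enzyme. IC50 at 2 mM pNPP (Km) over an inhibitor titration; mode of inhibition and Ki from rates across varied pNPP and inhibitor levels, fitted to enzyme kinetic models.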

TC-PTP [3] = biological target: T2, TC-PTP (Homo sapiens, UniProt P17706); test: as above; type: biochemical; conditions: pNPP 2 mM, pH 7.0, 25° C.; read-out: IC50, nM TC-PTP
T2 sequence (P17706 1-415): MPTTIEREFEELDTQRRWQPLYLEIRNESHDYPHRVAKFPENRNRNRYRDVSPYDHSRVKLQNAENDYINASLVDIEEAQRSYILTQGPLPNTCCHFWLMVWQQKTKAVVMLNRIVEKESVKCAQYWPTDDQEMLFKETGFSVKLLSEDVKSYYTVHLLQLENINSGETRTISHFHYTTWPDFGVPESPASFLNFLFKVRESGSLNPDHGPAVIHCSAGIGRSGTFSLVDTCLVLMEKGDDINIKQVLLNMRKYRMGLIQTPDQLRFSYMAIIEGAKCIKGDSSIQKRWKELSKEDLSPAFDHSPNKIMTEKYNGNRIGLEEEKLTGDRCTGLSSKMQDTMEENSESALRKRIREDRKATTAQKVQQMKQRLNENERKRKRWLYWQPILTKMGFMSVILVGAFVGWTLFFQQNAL
How it was run: as §1

PTP1B [4] = biological target: T1, PTP1B; test: Degradation assay in HEK293 cells (immunoblotting); type: cell-based; set-up: Degradation assay was conducted in HEK293 cells with 1 μM degrader and 24 hours incubation; endogenous in cells; host or cells: HEK293; conditions: 100 nM, 4 hours
TC-PTP [5] = biological target: T2, TC-PTP; test: Degradation assay in HEK293 cells (immunoblotting); type: cell-based; set-up: Degradation assay was conducted in HEK293 cells with 1 μM degrader and 24 hours incubation; endogenous in cells; host or cells: HEK293; conditions: 100 nM, 4 hours

`NS(=O)(=O)OC[C@@H]1C[C@@H](n2ccc3c(N[C@H]4CCc5ccccc54)ncnc32)C[C@@H]1O` [MLN-4924] was tested, and the “effect of pretreatment on compound 47-mediated PTP1B and TC-PTP degradation” value (“effect of pretreatment” for short) [1] was “markedly reduced”.
`CC(C)CCN[C@@H]1CCc2cc(O)c(N3CC(=O)NS3(=O)=O)c(F)c2C1` [ABBV-CLS-484, reference compound] showed an EC50 (pSTAT1) of 79.7 nM.
For `Nc1cccc2c1CN(C1CCC(=O)NC1=O)C2=O` (stereo not drawn) [lenalidomide], the “effect of pretreatment” value [1] was “had no effect”.
`COc1cc(CC(=O)N[C@@H](Cc2ccccc2)C(=O)N[C@@H](Cc2ccc(C(F)(F)P(=O)(O)O)cc2)C(=O)N[C@@H](CCCCNC(=O)c2ccc(C)c(Br)c2)C(=O)NCc2cccc(CC(=O)N[C@H](C(=O)N3C[C@@H](O)C[C@H]3C(=O)N[C@@H](C)c3ccc(-c4scnc4C)cc3)C(C)(C)C)c2)ccc1O` [cis-47] ({Phenylacetyl(4-OH,3-OMe)}-F[F2Pmp]K(Benzoyl(3-Br,4-Me))[NHCH2(1,3-C6H4)CH2CO][Tle][cisHyp]-X1) was tested, and the IC50 (PTP1B [2]) was 25.1 ± 1.6 nM, the IC50 (TC-PTP [3]) was 29.7 ± 2.1 nM and the PTP1B degradation (PTP1B [4]) was “failed to degrade”. The TC-PTP degradation (TC-PTP [5]) was “failed to degrade”.
`CC(C)C[C@@H](C=O)NC(=O)[C@H](CC(C)C)NC(=O)[C@H](CC(C)C)NC(=O)OCc1ccccc1` [MG-132] (Cbz-Leu-Leu-Leu-aldehyde) was tested, and the “effect of pretreatment” value [1] was “markedly reduced”.
With `Cc1ncsc1-c1ccc([C@H](C)NC(=O)[C@@H]2C[C@@H](O)CN2C(=O)[C@@H](N)C(C)(C)C)cc1` [(S,R,S)-AHPC-Me] the “effect of pretreatment” value [1] was “reduced”.
